Laboratory results taken from US20240382629A1, “HETEROBIVALENT AND HOMOBIVALENT AGENTS TARGETING FIBROBLAST ACTIVATION PROTEIN ALPHA AND/OR PROSTATE-SPECIFIC MEMBRANE ANTIGEN” (The Johns Hopkins University, priority 2021, published 2024).

Test system: U87 tumor
Assay: Biodistribution ([^18F]JHU1221823), carrier / specific activity study
Type: in vivo, mouse
Description: Biodistribution of Representative Compounds

[1] = mean (one mouse), NOD/SCID, U87 tumor, Carrier 700, 60 min post injection
[2] = mean, + 0.05 nmole carrier, 60 min post injection
[3] = mean, + 0.1 nmole carrier, 60 min post injection
[4] = mean, + 0.25 nmole carrier, 60 min post injection
[5] = mean, NOD/SCID, U87 tumor, Carrier 350 (350 mCi/μmol), 60 min post injection
[6] = mean, Nude mice, U87 tumor, Baseline (~5000 mCi/μmol), 60 min post injection
[7] = mean, Nude mice, U87 tumor, Carrier 350 (350 mCi/μmol), 60 min post injection
[8] = mean, Nude mice, U87 tumor, Carrier 700, 60 min post injection
[9] = mean, U87 tumor, Baseline, second block (stands before <NOD/SCID> heading), 60 min post injection

## N#C[C@@H]1CCCN1C(=O)CNC(=O)c1ccnc2ccc(OCCCNC(=O)CCOCCOCCOCCOCCNC(=O)[C@H](CCCCNC(=O)c3ccc([18F])nc3)NC(=O)CN3CCN(CC(=O)O)CCN(CC(=O)O)CCN(CC(=O)O)CC3)cc12 [[^18F]JHU1221823]
[1]
  Bladder % ID/g: 8.20 % ID/g
  Blood % ID/g: 5.82 % ID/g
  Brain % ID/g: 0.16 % ID/g
  Fat % ID/g: 0.90 % ID/g
  Femur % ID/g: 2.41 % ID/g
  Heart % ID/g: 3.48 % ID/g
  Kidney % ID/g: 2.45 % ID/g
  Large intestine % ID/g: 2.26 % ID/g
  Liver % ID/g: 2.36 % ID/g
  Lung % ID/g: 3.56 % ID/g
  Muscle % ID/g: 1.99 % ID/g
  Pancreas % ID/g: 13.03 % ID/g
  Salivary gland % ID/g: 11.31 % ID/g
  Small intestine % ID/g: 3.48 % ID/g
  Spleen % ID/g: 1.46 % ID/g
  Stomach % ID/g: 1.64 % ID/g
  Tumor % ID/g: 7.79 % ID/g
mean, + 0.01 nmole carrier
  Bladder % ID/g: 2.00 % ID/g
  Blood % ID/g: 11.29 % ID/g
  Brain % ID/g: 0.30 % ID/g
  Fat % ID/g: 0.34 % ID/g
  Femur % ID/g: 3.53 % ID/g
  Heart % ID/g: 4.62 % ID/g
  Kidney % ID/g: 2.96 % ID/g
  Large intestine % ID/g: 1.62 % ID/g
  Liver % ID/g: 3.09 % ID/g
  Lung % ID/g: 6.15 % ID/g
  Muscle % ID/g: 1.88 % ID/g
  Pancreas % ID/g: 4.07 % ID/g
  Salivary gland % ID/g: 7.47 % ID/g
  Small intestine % ID/g: 2.20 % ID/g
  Spleen % ID/g: 2.01 % ID/g
  Stomach % ID/g: 1.49 % ID/g
  Tumor % ID/g: 2.37 % ID/g
[2]
  Bladder % ID/g: 4.29 % ID/g
  Blood % ID/g: 7.55 % ID/g
  Brain % ID/g: 0.21 % ID/g
  Fat % ID/g: 0.78 % ID/g
  Femur % ID/g: 3.25 % ID/g
  Heart % ID/g: 3.03 % ID/g
  Kidney % ID/g: 2.29 % ID/g
  Large intestine % ID/g: 1.53 % ID/g
  Liver % ID/g: 2.13 % ID/g
  Lung % ID/g: 4.10 % ID/g
  Muscle % ID/g: 1.83 % ID/g
  Pancreas % ID/g: 5.35 % ID/g
  Salivary gland % ID/g: 10.93 % ID/g
  Small intestine % ID/g: 1.82 % ID/g
  Spleen % ID/g: 1.50 % ID/g
  Stomach % ID/g: 1.27 % ID/g
  Tumor % ID/g: 3.42 % ID/g
[3]
  Bladder % ID/g: 1.75 % ID/g
  Blood % ID/g: 4.10 % ID/g
  Brain % ID/g: 0.12 % ID/g
  Fat % ID/g: 1.65 % ID/g
  Femur % ID/g: 3.72 % ID/g
  Heart % ID/g: 1.84 % ID/g
  Kidney % ID/g: 2.01 % ID/g
  Large intestine % ID/g: 2.35 % ID/g
  Liver % ID/g: 1.16 % ID/g
  Lung % ID/g: 2.57 % ID/g
  Muscle % ID/g: 1.97 % ID/g
  Pancreas % ID/g: 4.67 % ID/g
  Salivary gland % ID/g: 8.31 % ID/g
  Small intestine % ID/g: 1.64 % ID/g
  Spleen % ID/g: 0.96 % ID/g
  Stomach % ID/g: 1.00 % ID/g
  Tumor % ID/g: 5.08 % ID/g
[4]
  Bladder % ID/g: 2.51 % ID/g
  Blood % ID/g: 1.90 % ID/g
  Brain % ID/g: 0.08 % ID/g
  Fat % ID/g: 0.51 % ID/g
  Femur % ID/g: 4.26 % ID/g
  Heart % ID/g: 0.91 % ID/g
  Kidney % ID/g: 1.92 % ID/g
  Large intestine % ID/g: 0.65 % ID/g
  Liver % ID/g: 0.75 % ID/g
  Lung % ID/g: 1.37 % ID/g
  Muscle % ID/g: 1.25 % ID/g
  Pancreas % ID/g: 1.77 % ID/g
  Salivary gland % ID/g: 3.31 % ID/g
  Small intestine % ID/g: 0.91 % ID/g
  Spleen % ID/g: 0.46 % ID/g
  Stomach % ID/g: 0.69 % ID/g
  Tumor % ID/g: 3.52 % ID/g
[5]
  Bladder % ID/g: 4.33 % ID/g
  Blood % ID/g: 4.14 % ID/g
  Brain % ID/g: 0.09 % ID/g
  Fat % ID/g: 0.85 % ID/g
  Femur % ID/g: 3.43 % ID/g
  Heart % ID/g: 2.14 % ID/g
  Kidney % ID/g: 2.13 % ID/g
  Large intestine % ID/g: 2.08 % ID/g
  Liver % ID/g: 1.76 % ID/g
  Lung % ID/g: 2.74 % ID/g
  Muscle % ID/g: 2.03 % ID/g
  Pancreas % ID/g: 10.18 % ID/g
  Salivary gland % ID/g: 9.49 % ID/g
  Small intestine % ID/g: 2.29 % ID/g
  Spleen % ID/g: 1.80 % ID/g
  Stomach % ID/g: 1.47 % ID/g
  Tumor % ID/g: 8.64 % ID/g
[6]
  Bladder % ID/g: 2.38 % ID/g
  Blood % ID/g: 11.46 % ID/g
  Brain % ID/g: 0.23 % ID/g
  Fat % ID/g: 0.99 % ID/g
  Femur % ID/g: 2.41 % ID/g
  Heart % ID/g: 5.54 % ID/g
  Kidney % ID/g: 2.91 % ID/g
  Large intestine % ID/g: 1.40 % ID/g
  Liver % ID/g: 3.31 % ID/g
  Lung % ID/g: 6.97 % ID/g
  Muscle % ID/g: 1.75 % ID/g
  Pancreas % ID/g: 3.36 % ID/g
  Salivary gland % ID/g: 6.91 % ID/g
  Small intestine % ID/g: 2.70 % ID/g
  Spleen % ID/g: 2.06 % ID/g
  Stomach % ID/g: 1.23 % ID/g
  Tumor % ID/g: 2.33 % ID/g
[7]
  Bladder % ID/g: 1.73 % ID/g
  Blood % ID/g: 5.84 % ID/g
  Brain % ID/g: 0.14 % ID/g
  Fat % ID/g: 0.89 % ID/g
  Femur % ID/g: 4.15 % ID/g
  Heart % ID/g: 2.50 % ID/g
  Kidney % ID/g: 2.07 % ID/g
  Large intestine % ID/g: 1.76 % ID/g
  Liver % ID/g: 1.90 % ID/g
  Lung % ID/g: 3.45 % ID/g
  Muscle % ID/g: 2.41 % ID/g
  Pancreas % ID/g: 6.29 % ID/g
  Salivary gland % ID/g: 11.15 % ID/g
  Small intestine % ID/g: 2.42 % ID/g
  Spleen % ID/g: 1.29 % ID/g
  Stomach % ID/g: 1.56 % ID/g
  Tumor % ID/g: 2.27 % ID/g
[8]
  Bladder % ID/g: 2.23 % ID/g
  Blood % ID/g: 9.94 % ID/g
  Brain % ID/g: 0.20 % ID/g
  Fat % ID/g: 0.49 % ID/g
  Femur % ID/g: 3.06 % ID/g
  Heart % ID/g: 4.65 % ID/g
  Kidney % ID/g: 2.53 % ID/g
  Large intestine % ID/g: 1.62 % ID/g
  Liver % ID/g: 2.81 % ID/g
  Lung % ID/g: 5.57 % ID/g
  Muscle % ID/g: 2.07 % ID/g
  Pancreas % ID/g: 3.91 % ID/g
  Salivary gland % ID/g: 8.13 % ID/g
  Small intestine % ID/g: 2.18 % ID/g
  Spleen % ID/g: 1.72 % ID/g
  Stomach % ID/g: 1.37 % ID/g
  Tumor % ID/g: 2.01 % ID/g
[9]
  Bladder % ID/g: 6.92 % ID/g
  Blood % ID/g: 10.99 % ID/g
  Brain % ID/g: 0.22 % ID/g
  Fat % ID/g: 0.62 % ID/g
  Femur % ID/g: 2.37 % ID/g
  Heart % ID/g: 6.95 % ID/g
  Kidney % ID/g: 3.41 % ID/g
  Large intestine % ID/g: 2.18 % ID/g
  Liver % ID/g: 4.38 % ID/g
  Lung % ID/g: 7.03 % ID/g
  Muscle % ID/g: 1.64 % ID/g
  Pancreas % ID/g: 8.17 % ID/g
  Salivary gland % ID/g: 11.89 % ID/g
  Small intestine % ID/g: 3.66 % ID/g
  Spleen % ID/g: 2.16 % ID/g
  Stomach % ID/g: 1.81 % ID/g
  Tumor % ID/g: 3.08 % ID/g
mean, carrier not given
  Bladder % ID/g: 4.53 % ID/g
  Blood % ID/g: 9.54 % ID/g
  Brain % ID/g: 0.22 % ID/g
  Fat % ID/g: 1.07 % ID/g
  Femur % ID/g: 2.83 % ID/g
  Heart % ID/g: 4.65 % ID/g
  Kidney % ID/g: 2.73 % ID/g
  Large intestine % ID/g: 1.49 % ID/g
  Liver % ID/g: 2.99 % ID/g
  Lung % ID/g: 5.72 % ID/g
  Muscle % ID/g: 1.78 % ID/g
  Pancreas % ID/g: 2.14 % ID/g
  Salivary gland % ID/g: 6.93 % ID/g
  Small intestine % ID/g: 3.02 % ID/g
  Spleen % ID/g: 2.15 % ID/g
  Stomach % ID/g: 1.14 % ID/g
  Tumor % ID/g: 5.71 % ID/g
